In ChEMBL document CHEMBL4334494, “Recent advances in the targeting of human DNA ligase I as a potential new strategy for cancer treatment” (Eur J Med Chem, 2019):
pIC50: −log10 of the molar value.

What was measured:
HepG2 [1] = experiment: Antiproliferative activity against human HepG2 cells at 100 uM relative to control; assay type: functional
A549 = experiment: Antiproliferative activity against human A549 cells at 100 uM relative to control; assay type: functional
HCT-116 [2] = experiment: Antiproliferative activity against human HCT116 cells at 100 uM relative to control; assay type: functional
DLD-1 [3] = experiment: Antiproliferative activity against human DLD1 cells at 100 uM relative to control; assay type: functional
MDA-MB-231 [4] = experiment: Antiproliferative activity against human MDA-MB-231 cells at 100 uM relative to control; assay type: functional
HEK293 = experiment: Cytotoxicity against HEK293 cells at 100 uM relative to control; assay type: cell-based; settings: human, hek293, 100 µM
DLD-1 [5] = experiment: Antiproliferative activity against human DLD1 cells after 48 hrs by MTT assay; assay type: functional, cell-based; settings: DLD-1, 48 h
HepG2 [6] = experiment: Antiproliferative activity against human HepG2 cells after 48 hrs by MTT assay; assay type: functional, cell-based; settings: HepG2, 48 h
MDA-MB-231 [7] = experiment: Antiproliferative activity against human MDA-MB-231 cells after 48 hrs by MTT assay; assay type: functional, cell-based; settings: MDA-MB-231, 48 h
DNA ligase 1 [8] = biological target: T1, DNA ligase 1 (Homo sapiens, UniProt P18858); experiment: Inhibition of human DNA ligase 1 expressed in Escherichia coli BL21DE3RP cells at 50 uM using 52-mer DNA/25-mer DNA/27-mer DNA as substrate after 30 mins by Cyanin3 dye-based fluorescence assay relative to control
HCT-116 [9] = experiment: Antiproliferative activity against human HCT116 cells after 48 hrs by MTT assay; assay type: functional, cell-based; settings: HCT-116, 48 h
HT-29 = experiment: Antiproliferative activity against human HT-29 cells after 48 hrs by MTT assay; assay type: functional, cell-based; settings: HT-29, 48 h
HeLa = experiment: Antiproliferative activity against human HeLa cells after 48 hrs by MTT assay; assay type: functional, cell-based
4T1 = experiment: Antiproliferative activity against mouse 4T1 cells after 48 hrs by MTT assay; assay type: functional, cell-based; settings: 4T1, 48 h
DNA ligase 1 [10] = biological target: T1, DNA ligase 1; experiment: Inhibition of human DNA ligase 1 using 52-mer DNA/25-mer DNA/27-mer DNA as substrate by fluorescence assay
DNA ligase 1 [11] = biological target: T1, DNA ligase 1; experiment: Inhibition of human DNA ligase 1 at 50 uM using 52-mer DNA/25-mer DNA/27-mer DNA as substrate by fluorescence assay relative to control

T1 sequence (P18858 whole entry): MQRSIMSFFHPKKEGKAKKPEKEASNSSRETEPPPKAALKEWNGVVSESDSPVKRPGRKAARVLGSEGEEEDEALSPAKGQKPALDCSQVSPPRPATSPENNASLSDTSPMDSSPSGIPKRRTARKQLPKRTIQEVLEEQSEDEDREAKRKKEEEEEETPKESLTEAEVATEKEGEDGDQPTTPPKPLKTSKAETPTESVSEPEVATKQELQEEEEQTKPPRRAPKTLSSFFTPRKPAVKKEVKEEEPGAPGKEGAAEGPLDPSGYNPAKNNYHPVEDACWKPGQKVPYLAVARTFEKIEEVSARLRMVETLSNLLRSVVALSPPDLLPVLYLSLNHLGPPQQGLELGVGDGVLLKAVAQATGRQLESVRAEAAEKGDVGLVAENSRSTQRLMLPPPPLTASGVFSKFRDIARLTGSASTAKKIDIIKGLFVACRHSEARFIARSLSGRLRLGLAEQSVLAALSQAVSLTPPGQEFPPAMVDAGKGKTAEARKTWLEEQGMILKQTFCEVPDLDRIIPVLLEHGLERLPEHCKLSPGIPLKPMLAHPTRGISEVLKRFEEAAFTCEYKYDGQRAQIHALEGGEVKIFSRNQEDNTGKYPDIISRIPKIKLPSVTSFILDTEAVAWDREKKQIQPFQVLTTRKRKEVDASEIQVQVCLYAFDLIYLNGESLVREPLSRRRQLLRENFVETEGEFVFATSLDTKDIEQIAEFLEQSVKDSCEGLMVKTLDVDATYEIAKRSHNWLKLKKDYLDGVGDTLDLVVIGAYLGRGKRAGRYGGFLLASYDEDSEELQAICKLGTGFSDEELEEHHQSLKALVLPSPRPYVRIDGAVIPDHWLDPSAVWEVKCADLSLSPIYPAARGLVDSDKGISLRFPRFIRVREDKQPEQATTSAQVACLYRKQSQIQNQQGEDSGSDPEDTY

SMILES	inhibition (DNA ligase 1 [11]) [%]	inhibition at 100 µM (HepG2 [1]) [%]	inhibition at 100 µM (A549) [%]	inhibition at 100 µM (HCT-116 [2]) [%]	inhibition at 100 µM (DLD-1 [3]) [%]	inhibition at 100 µM (MDA-MB-231 [4]) [%]	Activity (HEK293) [%]	other results
CCOC(=O)C1=C(C)NC(=O)NC1c1cc(C)c(O)c(/C=N/NC(N)=S)c1 (stereo not given)		> 80	> 80	> 80	> 80	> 80	> 80	
CCCCNC(=S)N1C/C(=C\c2ccccc2F)C(=O)/C(=C/c2ccccc2F)C1								pIC50 (DLD-1 [5]): > 5.00; pIC50 (HepG2 [6]): > 5.00; pIC50 (MDA-MB-231 [7]): > 5.00; inhibition (DNA ligase 1 [8]): > 75%; pIC50 (HCT-116 [9]): > 5.00; pIC50 (HT-29): > 5.00; pIC50 (HeLa): > 5.00; pIC50 (4T1): > 5.00
C[n+]1cc2c3c(ccc2c2ccc4cc5c(cc4c21)OCO5)OCO3 [SANGUINARINE NITRATE]								pIC50 (DNA ligase 1 [10]): 3.49
CCCCNC(=S)N1C/C(=C\c2ccc(OC)cc2)C(=O)/C(=C/c2ccc(OC)cc2)C1								inhibition (DNA ligase 1 [8]): > 75%
CCOC(=O)C1=C(C)NC(=S)NC1c1cc(/C=N/NC(=S)Nc2ccc(Cl)cc2)c(O)c(C(C)(C)C)c1 (stereo not given)		< 80	< 80	< 80	< 80	< 80	< 80	
C=C1C(=O)OC(CCCCCCCCCCCCC)C1C(=O)O (stereo not drawn) [(+/-)-Protolichesterinic acid]								pIC50 (DNA ligase 1 [10]): 4.73
CCOC(=O)C1=C(C)NC(=O)NC1c1cc(/C=N/NC(=O)Nc2ccc(Br)cc2)c(O)c(C(C)(C)C)c1 (stereo not given)		> 80	> 80	> 80	> 80	> 80	> 80	
CCOC(=O)C1=C(C)NC(=S)NC1c1cc(C)c(O)c(/C=N/NC(=O)Nc2ccc(Cl)cc2)c1 (stereo not given)		> 80	> 80	> 80	> 80	> 80	> 80	
COc1ccc(/C=C2\CN(C(=S)NCCc3ccccc3)C/C(=C\c3ccc(OC)cc3)C2=O)cc1								inhibition (DNA ligase 1 [8]): > 75%
COc1cc2c(ccc3c4cc(OC)c(OC)cc4c[n+](C)c23)cc1O [FAGARONINE]								pIC50 (DNA ligase 1 [10]): 4.59
CCOC(=O)C1=C(C)NC(=O)NC1c1cc(/C=N/NC(=S)NC)c(O)c(C(C)(C)C)c1 (stereo not given)		> 80	> 80	> 80	> 80	> 80	> 80	
CC(C)c1ccc(/C=C2\CN(c3nc(-c4ccccc4)cs3)C/C(=C\c3ccc(C(C)C)cc3)C2=O)cc1								inhibition (DNA ligase 1 [8]): > 75%
CCOC(=O)C1=C(C)NC(=O)NC1c1cc(/C=N/NC(=O)Nc2ccc(F)cc2)c(O)c(C(C)(C)C)c1 (stereo not given)		> 80	> 80	> 80	> 80	> 80	> 80	
CC1(C)CC[C@]2(C(=O)O)CC=C3[C@]4(C)CC[C@H]5C(C)(C)[C@@H](O)CC[C@]5(C)[C@H]4CC[C@@]3(C)[C@@H]2C1 [ALEURITOLIC ACID]								pIC50 (DNA ligase 1 [10]): 3.68
CCOC(=O)C1=C(C)NC(=O)NC1c1cc(/C=N/NC(=S)Nc2ccc(Cl)cc2)c(O)c(C(C)(C)C)c1 (stereo not given)		> 80	> 80	> 80	> 80	> 80	> 80	
CC1(C)CC[C@]2(C(=O)O)CC[C@]3(C)C(=CC[C@@H]4[C@@]5(C)CC[C@H](O)C(C)(C)[C@@H]5CC[C@]43C)[C@@H]2C1 [OLEANOLIC_ACID]								pIC50 (DNA ligase 1 [10]): 3.73

More lines, main results first:

inhibition (DNA ligase 1 [11]) [%]	SMILES	inhibition at 100 µM (HepG2 [1]) [%]	inhibition at 100 µM (A549) [%]	inhibition at 100 µM (HCT-116 [2]) [%]	inhibition at 100 µM (DLD-1 [3]) [%]	inhibition at 100 µM (MDA-MB-231 [4]) [%]	Activity (HEK293) [%]	other results
10.8	COC(=O)N1CCN(CC(=O)Nc2cc(C)nc3ccc(NC(=O)Nc4ccc(Br)cc4)cc23)CC1							
61.1	Cc1cc(NC(=O)CN2CCN(C(=O)OC(C)(C)C)CC2)c2cc(NC(=O)Nc3ccc(C)c(Cl)c3)ccc2n1							
75.9	COc1cc([N+](=O)[O-])ccc1NC(=S)NCC12C=CC(O1)C1C(=O)N(c3c(Cl)cccc3Cl)C(=O)C12 (stereo not given)							
98.2	COc1cc([N+](=O)[O-])ccc1NC(=S)NCC12C=CC(O1)C1C(=O)N(c3ccc(C)cc3)C(=O)C12 (stereo not given)							
1.5	CCOC(=O)N1CCN(CC(=O)Nc2cc(C)nc3ccc(NC(=O)Nc4ccc(Cl)cc4)cc23)CC1							
22.4	COc1cccc(NC(=S)NCC23C=CC(O2)C2C(=O)N(c4ccccc4Cl)C(=O)C23)c1 (stereo not given)							
12.2	COc1ccc(NC(=O)Nc2ccc3nc(C)cc(NC(=O)c4ccccc4Cl)c3c2)cc1							
